# Experimental data: article PMC7438494 (Communications Biology, 2020)
# Several values for one entry are separate records, joined by “and”; a condition that tells them apart may be missing. Equal values may be shown once.
# Tests used:
# [1] = biological target: yeast mitochondrial ATP synthase (yeast SMP) (Saccharomyces cerevisiae, UniProt P00854+P61829); assay: biochemical; conditions: for ATP hydrolysis activity, Exp 1-3: SMP data
# luciferase = luciferase (Photinus pyralis, UniProt P08659); type: biochemical
# hERG channel = conditions: read-out: IC50 for hERG; cited from earlier work
# MCF7 breast cancer cells = conditions: read-out: IC50, mitochondrial oxygen consumption / cell growth; cited from earlier work
# human mitoplasts = assay: Membrane potential of human mitoplasts, fluorescence quenching of Rhodamine 123; type: biochemical; conditions: high concentrations
# Description: The membrane potential was assessed by measuring fluorescence quenching of Rhodamine 123 at 488 nm excitation and 525 nm emission in a buffer containing 0.65 M mannitol, 20 mM bis-tris-propane, 2 mM tris-phosphate, 0.3 mM EGTA, pH 6.8 with Rhodamine 123 dissolved in methanol (1.0 µM). Yeast mitochondria were energized with ethanol (0.4% v/v), whereas human mitochondria were energized with glutamate/malate (5 mM/2.5 mM).
# [2] = patients treated with Sirturo; placebo 2.5%; cited from earlier work
# yeast F1Fo ATP synthase = yeast F1Fo ATP synthase (Saccharomyces cerevisiae, UniProt P00854+P61829); assay: Single-particle cryo-EM of yeast F1Fo in nanodiscs with BDQ; type: binding
# [3] = biological target: yeast mitochondrial ATP synthase (Saccharomyces cerevisiae, UniProt P00854+P61829); assay: biochemical; conditions: frozen yeast mito, 60 min
# [4] = right-hand regression, fits the SMP data
# [5] = 1st exp (1-11-19), Bedaquiline 0.05 μM
# [6] = 1st exp (1-11-19), Bedaquiline 0.1 μM
# [7] = 1st exp (1-11-19), Bedaquiline 0.5 μM
# [8] = 1st exp (1-11-19), Bedaquiline 1 μM
# [9] = 1st exp (1-11-19), Bedaquiline 1.4 μM
# [10] = 1st exp (1-11-19), Bedaquiline 2 μM
# [11] = 1st exp (1-11-19), Bedaquiline 3 μM
# [12] = 1st exp (1-11-19), Bedaquiline 4 μM
# [13] = 1st exp (1-11-19), Bedaquiline 6 μM
# [14] = 2nd exp (1-29-19), Bedaquiline 0.005 μM (duplicate)
# [15] = 2nd exp (1-29-19), Bedaquiline 0.05 μM
# [16] = 2nd exp (1-29-19), Bedaquiline 0.1 μM
# [17] = 2nd exp (1-29-19), Bedaquiline 0.5 μM
# Sequence of luciferase (P08659 whole entry): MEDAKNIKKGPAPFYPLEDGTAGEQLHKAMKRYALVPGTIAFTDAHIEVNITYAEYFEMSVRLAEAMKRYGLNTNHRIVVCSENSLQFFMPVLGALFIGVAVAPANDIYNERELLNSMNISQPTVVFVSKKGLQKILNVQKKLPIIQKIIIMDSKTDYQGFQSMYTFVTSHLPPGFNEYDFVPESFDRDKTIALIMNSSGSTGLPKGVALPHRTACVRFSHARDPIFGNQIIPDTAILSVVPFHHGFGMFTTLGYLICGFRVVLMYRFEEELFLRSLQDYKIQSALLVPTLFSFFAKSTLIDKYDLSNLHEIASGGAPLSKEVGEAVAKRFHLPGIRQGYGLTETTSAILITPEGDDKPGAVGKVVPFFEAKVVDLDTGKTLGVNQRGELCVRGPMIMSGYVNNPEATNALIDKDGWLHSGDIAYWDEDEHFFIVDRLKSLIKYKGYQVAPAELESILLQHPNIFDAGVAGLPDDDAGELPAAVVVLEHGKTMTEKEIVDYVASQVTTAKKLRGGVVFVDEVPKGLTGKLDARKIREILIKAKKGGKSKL
smiles,measurement,setting,value
"COc1nc2ccc(Br)cc2cc1[C@@H](c1ccccc1)[C@@](O)(CCN(C)C)c1cccc2ccccc12 [BDQ, Bedaquiline]",EC50,[1],1280 nM
same,IC50,"[1]; IC50 ± SEM, ATP hydrolysis, yeast SMP",1280 ± 250 nM
same,"ATP hydrolysis activity, Exp 1-3",[1]; BDQ 0.0372 uM,0.9086 and 0.8616 and 0.8497
same,"ATP hydrolysis activity, Exp 1-3",[1]; BDQ 0.0744 uM,0.9524 and 0.7514 and 0.8742
same,"ATP hydrolysis activity, Exp 1-3",[1]; BDQ 0.3722 uM,0.7241 and 0.758 and 0.7412
same,"ATP hydrolysis activity, Exp 1-3",[1]; BDQ 0.7445 uM,0.71 and 0.6674 and 0.5944
same,"ATP hydrolysis activity, Exp 1-3",[1]; BDQ 1.489 uM,0.489 and 0.4879 and 0.5368
same,"ATP hydrolysis activity, Exp 1-3",[1]; BDQ 3.7225 uM,0.2859 and 0.2741 and 0.3273
same,"ATP hydrolysis activity, Exp 1-3",[1]; BDQ 7.4449 uM,0.2679 and 0.4735 and 0.3345
same,"ATP hydrolysis activity, Exp 1-3",[1]; BDQ 18.6123 uM,0.1786 and 0.215 and 0.285
same,"ATP hydrolysis activity, Exp 1-3",[1]; BDQ 37.2245 uM,0.1804 and 0.145 and 0.1981
same,"Hillslope, four parameter logistic fit, second regression",[1]; [4],-1.0668
same,"max, four parameter logistic fit, second regression",[1]; [4],0.8923
same,"min, four parameter logistic fit, second regression",[1]; [4],0.1853
same,effect on the activity of luciferase,luciferase,did not affect
same,IC50,hERG channel,~1700 nM
same,IC50,MCF7 breast cancer cells,~1000 nM
same,"effect on membrane potential, human mitoplasts",human mitoplasts,partial effect
same,risk of death,[2],11.4%
same,binding to F1 by cryo-EM density,yeast F1Fo ATP synthase; F1Fo map 3.9 Å,not bound to F1
same,binding site by cryo-EM density,yeast F1Fo ATP synthase; Fo map 4.2 Å,at the interface between the a- and c-subunits
same,Cyanide sensitive ATP synthesis,[3]; [5],49.0688 nmol/min/mg
same,activity at 0.05 µM,[3]; [5],106%
same,inhibition at 0.05 µM,[3]; [5],-6.06%
same,Cyanide sensitive ATP synthesis,[3]; [6],39.561 nmol/min/mg
same,activity at 0.1 µM,[3]; [6],85.5%
same,inhibition at 0.1 µM,[3]; [6],14.5%
same,Cyanide sensitive ATP synthesis,[3]; [7],35.6774 nmol/min/mg
same,activity at 0.5 µM,[3]; [7],77.1%
same,inhibition at 0.5 µM,[3]; [7],22.9%
same,Cyanide sensitive ATP synthesis,[3]; [8],21.3622 nmol/min/mg
same,activity at 1 µM,[3]; [8],46.2%
same,inhibition at 1 µM,"[3]; 1st exp (1-11-19), Bedaquiline 1 μM, read-out: % inhibition",53.8%
same,Cyanide sensitive ATP synthesis,[3]; [9],15.4854 nmol/min/mg
same,activity at 1.4 µM,[3]; [9],33.5%
same,inhibition at 1.4 µM,[3]; [9],66.5%
same,Cyanide sensitive ATP synthesis,[3]; [10],8.026 nmol/min/mg
same,activity at 2 µM,[3]; [10],17.3%
same,inhibition at 2 µM,[3]; [10],82.7%
same,Cyanide sensitive ATP synthesis,[3]; [11],3.204 nmol/min/mg
same,activity at 3 µM,[3]; [11],6.92%
same,inhibition at 3 µM,[3]; [11],93.1%
same,Cyanide sensitive ATP synthesis,[3]; [12],1.232 nmol/min/mg
same,activity at 4 µM,[3]; [12],2.66%
same,inhibition at 4 µM,[3]; [12],97.3%
same,activity at 6 µM,[3]; [13],1.64%
same,inhibition at 6 µM,[3]; [13],98.4%
same,% activity,[3]; [14],96.7896%
same,% inhibition,[3]; [14],-3.9401% and 3.21%
same,Cyanide sensitive ATP synthesis,[3]; [14],54.583 nmol/min/mg and 50.828 nmol/min/mg
same,activity at 0.005 µM,[3]; [14],104%
same,Cyanide sensitive ATP synthesis,[3]; [15],50.1533 nmol/min/mg
same,activity at 0.05 µM,[3]; [15],95.5%
same,inhibition at 0.05 µM,[3]; [15],4.5%
same,Cyanide sensitive ATP synthesis,[3]; [16],50.0836 nmol/min/mg
same,activity at 0.1 µM,[3]; [16],95.4%
same,inhibition at 0.1 µM,[3]; [16],4.63%
same,Cyanide sensitive ATP synthesis,[3]; [17],46.4023 nmol/min/mg
same,activity at 0.5 µM,[3]; [17],88.4%
same,inhibition at 0.5 µM,[3]; [17],11.6%
same,Cyanide sensitive ATP synthesis,"[3]; 2nd exp (1-29-19), Bedaquiline 1 μM",33.1052 nmol/min/mg
